Experimental data: PubChem BioAssay (NCI)
“And” between values parts separate entries of the source, which are not always exact repeats. Identical values can stand only once.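 Five concentrations, 48 hours, 96-well plates. At the GI50, growth is halved. At the TGI there is no net growth.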

Assays:
Experiment in all cases: NCI-60 cell line screen, 48 h
CCRF-CEM leukemia = tested on: CCRF-CEM leukemia
COLO 205 colon = tested on: COLO 205 colon
DU-145 prostate = tested on: DU-145 prostate
EKVX NSCLC = tested on: EKVX NSCLC
HCC-2998 colon = tested on: HCC-2998 colon
HCT-15 colon = tested on: HCT-15 colon
HOP-92 NSCLC = tested on: HOP-92 NSCLC
M14 melanoma = tested on: M14 melanoma
MDA-MB-435 = tested on: MDA-MB-435
SF-268 CNS = tested on: SF-268 CNS
SF-295 CNS = tested on: SF-295 CNS
SK-MEL-2 melanoma = tested on: SK-MEL-2 melanoma
SK-MEL-28 melanoma = tested on: SK-MEL-28 melanoma
SK-MEL-5 melanoma = tested on: SK-MEL-5 melanoma
SNB-75 CNS = tested on: SNB-75 CNS

| SMILES | TGI (CCRF-CEM leukemia) | TGI (COLO 205 colon) | TGI (DU-145 prostate) | TGI (EKVX NSCLC) | TGI (HCC-2998 colon) | TGI (HCT-15 colon) | TGI (HOP-92 NSCLC) | TGI (M14 melanoma) | TGI (MDA-MB-435) | TGI (SF-268 CNS) | TGI (SF-295 CNS) | TGI (SK-MEL-2 melanoma) | TGI (SK-MEL-28 melanoma) | TGI (SK-MEL-5 melanoma) | TGI (SNB-75 CNS) | GI50 (COLO 205 colon) | GI50 (SF-295 CNS) | GI50 (SK-MEL-2 melanoma) |
| --- | --- | --- | --- | --- | --- | --- | --- | --- | --- | --- | --- | --- | --- | --- | --- | --- | --- | --- |
| NNC(=O)c1n[nH]nc1SSc1n[nH]nc1C(=O)NN | > 100 µM | > 100 µM | > 100 µM | > 100 µM | > 100 µM | > 100 µM | > 100 µM | > 100 µM | > 100 µM | > 100 µM | > 100 µM | > 100 µM | > 100 µM | > 100 µM | > 100 µM |  |  |  |
| Cc1ccc(C2=Nc3c(N)nc(N)nc3NC(c3ccccc3)C2)cc1 (centres undefined) | 48.5 µM and 96.9 µM | 14 µM and 25.3 µM | 28.3 µM and 29.3 µM | 27.2 µM and 28.2 µM | 19.3 µM and 18.7 µM | 15.9 µM and 12 µM | 24.3 µM and 24.9 µM | 20.8 µM and 21.8 µM | 7.25 µM and 6.01 µM | 29.9 µM and 31.8 µM | 17.9 µM and 23.8 µM | 22 µM and 17.9 µM | 24.8 µM and 35.3 µM | 34.4 µM | 29.8 µM and 27.4 µM | 5.21 µM and 11.4 µM | 4.9 µM and 10.5 µM | 9.71 µM and 4.19 µM |
| COC(=O)C1=C(C)NC(C)=C([N+](=O)[O-])C1c1cccc(NO)c1 (centres undefined) | > 22.9 µM | 4.74 µM | > 100 µM | > 61.5 µM | 16.8 µM | 9.77 µM | 28 µM | 12.3 µM | 5.3 µM | > 100 µM | 23.1 µM | > 43.8 µM | > 69.4 µM | 15 µM | > 100 µM |  |  |  |
| COc1cc2c(cc1OC)CCN=C2 | > 100 µM | > 100 µM | > 100 µM |  | > 100 µM | > 100 µM | > 100 µM | > 100 µM | > 100 µM |  | > 100 µM | > 100 µM | > 100 µM | > 100 µM | > 100 µM |  |  |  |
| C=C(Cl)C(Cl)(CBr)CCC(Cl)C(C)(C)Cl (centres undefined) | 29.2 µM | 10.5 µM | 3.31 µM | 20.9 µM | 16.4 µM | 14.7 µM | 2.52 µM | 35.6 µM | 8.21 µM | 2.92 µM | 7.73 µM | 1.84 µM | 3.8 µM | 24.7 µM | 1.77 µM |  |  |  |
| CN1CCN(c2ccc3[nH]c(C4=C(O)c5nc(CO)n(C)c5C(=O)C4=O)nc3n2)CC1 | > 100 µM | > 100 µM | > 100 µM | > 100 µM | > 100 µM | > 100 µM | > 100 µM | > 100 µM | > 100 µM | > 100 µM | > 100 µM | > 100 µM | > 100 µM |  | > 100 µM |  |  |  |
| CN(/N=C\c1ccc2ccccc2c1)C1=NCCCCN1 | 69.1 µM | 35.3 µM | > 100 µM | > 100 µM | 28.5 µM | > 100 µM | 7.4 µM |  | 38.1 µM | > 100 µM | 33.5 µM | 45.4 µM | 31.1 µM | 27.3 µM | 59.3 µM |  |  |  |
| O=C1c2ccccc2C(=O)N1c1ccc(OCCN2CCCCC2)cc1 | > 100 µM | > 100 µM | > 100 µM | > 100 µM | > 100 µM | > 100 µM | > 100 µM | > 100 µM | > 100 µM | > 100 µM | > 100 µM | > 100 µM | > 100 µM | > 100 µM |  |  |  |  |
| CSC(=NCCN=C(NS(=O)(=O)c1ccc(Cl)cc1)SC)NS(=O)(=O)c1ccc(Cl)cc1 | > 100 µM | > 100 µM | > 100 µM | > 100 µM | > 100 µM | > 100 µM | 58 µM | > 100 µM | > 100 µM | 68.7 µM | > 100 µM | > 100 µM | > 100 µM |  | 51.3 µM |  |  |  |
| O=C(O)c1ccccc1/C=N\NC1=NCCN1 | > 100 µM | > 100 µM | > 100 µM | > 100 µM | > 100 µM | > 100 µM | > 100 µM | > 100 µM | > 100 µM | > 100 µM | > 100 µM | > 100 µM |  | > 100 µM | > 100 µM |  |  |  |
| Cc1cccc2c1C(=O)C(C1OC(=O)c3ccccc31)C2 (centres undefined) | > 100 µM | > 100 µM | > 100 µM | > 100 µM | > 100 µM | > 100 µM | > 100 µM |  | > 100 µM | > 100 µM | > 100 µM | > 100 µM | > 100 µM | > 100 µM | > 100 µM |  |  |  |
| COC(=O)C1(Cc2cccc(Cl)c2)CCCCCCN1C(=O)c1ccccc1 (centres undefined) | 31.6 µM | 38.7 µM | 37.7 µM | 26.8 µM | 27.5 µM | 25.3 µM | 35.6 µM | 45 µM | 51.8 µM | 42.1 µM | 22.1 µM |  | 31.7 µM | 26.6 µM | 29.6 µM |  |  |  |
| CCCCCCCSCC(O)COC(c1ccccc1)(c1ccccc1)c1ccccc1 (centres undefined) | > 100 µM | > 100 µM | > 100 µM | > 100 µM | > 100 µM | > 100 µM | > 100 µM | > 100 µM | > 100 µM | 66.8 µM | > 100 µM | 52.5 µM | > 100 µM | 47.9 µM |  |  |  |  |
| O=C(/C=C/c1ccc(O)c(O)c1)OCCOC(=O)/C=C/c1ccc(O)c(O)c1 | > 100 µM | 42.3 µM | 79.8 µM | 83.1 µM | > 100 µM | > 100 µM | > 100 µM | 28.5 µM | 98 µM | > 100 µM | 44.1 µM | 45.8 µM | > 100 µM | 32.7 µM |  |  |  |  |
| Cc1cc2c(-c3ccccc3)cc(=O)[nH]c2cc1N | > 100 µM | > 100 µM | > 100 µM | > 100 µM | > 100 µM | > 100 µM | > 100 µM | > 100 µM | > 100 µM |  | > 100 µM | > 100 µM | > 100 µM | > 100 µM | > 100 µM |  |  |  |
| CC(C)(C)OC(=O)NC(Cc1ccc([N+](=O)[O-])cc1)C(=O)NC(CCCCNC(=O)OCc1ccccc1)C(=O)ON1C(=O)CCC1=O (centres undefined) |  | > 100 µM | > 100 µM | > 100 µM | 79.4 µM | > 100 µM | > 100 µM | > 100 µM | > 100 µM | > 100 µM | > 100 µM |  | > 100 µM | > 100 µM | > 100 µM |  |  |  |
